In the NIST ThermoML archive (doi:10.1016/j.jct.2019.05.010):
Several values for one entry are separate records, joined by “and”; a condition that tells them apart may be missing. Equal values may be shown once. Numbers after ± are expanded uncertainties.

Columns and labels:
[1] = 101.33 kPa, Crystal, Vacuum adiabatic calorimetry
[2] = molar heat capacity at constant pressure; details: 101.33 kPa, Crystal, Vacuum adiabatic calorimetry

## CC(=O)[CH-]C(C)=O.CC(=O)[CH-]C(C)=O.[Cu+2] [bis(2,4-pentanedionato-O,O')copper]
[1]; 5 K
  molar entropy: 0.229 ± 0.017 J/K/mol
[1]; 10 K
  molar entropy: 1.632 ± 0.068 J/K/mol
[1]; 15 K
  molar entropy: 4.62 ± 0.19 J/K/mol
[1]; 20 K
  molar entropy: 9.07 ± 0.37 J/K/mol
[1]; 25 K
  molar entropy: 14.79 ± 0.4 J/K/mol
[1]; 30 K
  molar entropy: 21.5 ± 0.46 J/K/mol
[1]; 35 K
  molar entropy: 28.92 ± 0.55 J/K/mol
[1]; 40 K
  molar entropy: 36.8 ± 0.61 J/K/mol
[1]; 45 K
  molar entropy: 44.99 ± 0.68 J/K/mol
[1]; 50 K
  molar entropy: 53.37 ± 0.77 J/K/mol
[1]; 55 K
  molar entropy: 61.8 ± 0.9 J/K/mol
[1]; 60 K
  molar entropy: 70.3 ± 0.9 J/K/mol
[1]; 65 K
  molar entropy: 78.6 ± 0.9 J/K/mol
[1]; 70 K
  molar entropy: 86.9 ± 1.2 J/K/mol
[1]; 80 K
  molar entropy: 103.1 ± 1.2 J/K/mol
[1]; 90 K
  molar entropy: 118.8 ± 1.2 J/K/mol
[1]; 100 K
  molar entropy: 133.8 ± 1.3 J/K/mol
[1]; 110 K
  molar entropy: 148.3 ± 1.5 J/K/mol
[1]; 120 K
  molar entropy: 162.3 ± 1.5 J/K/mol
[1]; 130 K
  molar entropy: 175.7 ± 1.6 J/K/mol
[1]; 140 K
  molar entropy: 188.8 ± 1.6 J/K/mol
[1]; 150 K
  molar entropy: 201.4 ± 1.9 J/K/mol
[1]; 160 K
  molar entropy: 213.6 ± 1.9 J/K/mol
[1]; 170 K
  molar entropy: 225.6 ± 1.9 J/K/mol
[1]; 180 K
  molar entropy: 237.2 ± 1.9 J/K/mol
[1]; 190 K
  molar entropy: 248.5 ± 1.9 J/K/mol
[1]; 200 K
  molar entropy: 259.6 ± 1.9 J/K/mol
[1]; 210 K
  molar entropy: 270.5 ± 2.2 J/K/mol
[1]; 220 K
  molar entropy: 281.1 ± 2.2 J/K/mol
[1]; 230 K
  molar entropy: 291.6 ± 2.2 J/K/mol
[1]; 240 K
  molar entropy: 301.9 ± 2.2 J/K/mol
[1]; 250 K
  molar entropy: 312.1 ± 2.2 J/K/mol
[1]; 260 K
  molar entropy: 322.1 ± 2.2 J/K/mol
[1]; 270 K
  molar entropy: 331.9 ± 2.5 J/K/mol
[1]; 280 K
  molar entropy: 341.7 ± 2.5 J/K/mol
[1]; 290 K
  molar entropy: 351.4 ± 2.5 J/K/mol
[1]; 298.15 K
  molar entropy: 359.1 ± 2.5 J/K/mol
[1]; 300 K
  molar entropy: 360.9 ± 2.5 J/K/mol
[1]; 310 K
  molar entropy: 370.4 ± 2.5 J/K/mol
[1]; 313 K
  molar entropy: 373.2 ± 2.5 J/K/mol
[2]; 5 K
  molar heat capacity at constant pressure: 0.667 ± 0.026 J/K/mol
[2]; 6.54 K
  molar heat capacity at constant pressure: 1.427 ± 0.043 J/K/mol
[2]; 9.03 K
  molar heat capacity at constant pressure: 3.433 ± 0.095 J/K/mol
[2]; 10 K
  molar heat capacity at constant pressure: 4.4 ± 0.13 J/K/mol
[2]; 11.38 K
  molar heat capacity at constant pressure: 6.016 ± 0.16 J/K/mol
[2]; 13.66 K
  molar heat capacity at constant pressure: 9.127 ± 0.24 J/K/mol
[2]; 15 K
  molar heat capacity at constant pressure: 11.23 ± 0.31 J/K/mol
[2]; 16.64 K
  molar heat capacity at constant pressure: 13.96 ± 0.37 J/K/mol
[2]; 20 K
  molar heat capacity at constant pressure: 20.52 ± 0.16 J/K/mol and 20.5 ± 0.15 J/K/mol
[2]; 22.84 K
  molar heat capacity at constant pressure: 26.59 ± 0.19 J/K/mol
[2]; 25 K
  molar heat capacity at constant pressure: 31.33 ± 0.21 J/K/mol
[2]; 25.85 K
  molar heat capacity at constant pressure: 33.31 ± 0.23 J/K/mol
[2]; 29.17 K
  molar heat capacity at constant pressure: 40.64 ± 0.27 J/K/mol
[2]; 30 K
  molar heat capacity at constant pressure: 42.65 ± 0.28 J/K/mol
[2]; 32.85 K
  molar heat capacity at constant pressure: 49.04 ± 0.31 J/K/mol
[2]; 35 K
  molar heat capacity at constant pressure: 53.76 ± 0.34 J/K/mol
[2]; 36.85 K
  molar heat capacity at constant pressure: 57.9 ± 0.37 J/K/mol
[2]; 40 K
  molar heat capacity at constant pressure: 64.51 ± 0.4 J/K/mol
[2]; 40.6 K
  molar heat capacity at constant pressure: 65.62 ± 0.41 J/K/mol
[2]; 44.11 K
  molar heat capacity at constant pressure: 72.98 ± 0.46 J/K/mol
[2]; 45 K
  molar heat capacity at constant pressure: 74.72 ± 0.46 J/K/mol
[2]; 48.18 K
  molar heat capacity at constant pressure: 80.84 ± 0.51 J/K/mol
[2]; 50 K
  molar heat capacity at constant pressure: 84.29 ± 0.52 J/K/mol
[2]; 52.32 K
  molar heat capacity at constant pressure: 88.52 ± 0.55 J/K/mol
[2]; 55 K
  molar heat capacity at constant pressure: 93.1 ± 0.58 J/K/mol
[2]; 56.3 K
  molar heat capacity at constant pressure: 95.12 ± 0.59 J/K/mol
[2]; 60 K
  molar heat capacity at constant pressure: 101 ± 0.6 J/K/mol
[2]; 60.23 K
  molar heat capacity at constant pressure: 101.6 ± 0.6 J/K/mol
[2]; 64.13 K
  molar heat capacity at constant pressure: 107 ± 0.7 J/K/mol
[2]; 65 K
  molar heat capacity at constant pressure: 108.3 ± 0.6 J/K/mol
[2]; 68.13 K
  molar heat capacity at constant pressure: 112.6 ± 0.7 J/K/mol
[2]; 70 K
  molar heat capacity at constant pressure: 115.1 ± 0.6 J/K/mol
[2]; 72.3 K
  molar heat capacity at constant pressure: 118.2 ± 0.7 J/K/mol
[2]; 76.49 K
  molar heat capacity at constant pressure: 123.2 ± 0.8 J/K/mol
[2]; 80 K
  molar heat capacity at constant pressure: 127.4 ± 0.6 J/K/mol
[2]; 80.07 K
  molar heat capacity at constant pressure: 127.4 ± 0.5 J/K/mol
[2]; 80.38 K
  molar heat capacity at constant pressure: 128 ± 0.5 J/K/mol
[2]; 85.04 K
  molar heat capacity at constant pressure: 132.9 ± 0.5 J/K/mol
[2]; 89.68 K
  molar heat capacity at constant pressure: 137.8 ± 0.5 J/K/mol
[2]; 90 K
  molar heat capacity at constant pressure: 138.1 ± 0.6 J/K/mol
[2]; 94.05 K
  molar heat capacity at constant pressure: 142.1 ± 0.5 J/K/mol
[2]; 98.21 K
  molar heat capacity at constant pressure: 146 ± 0.5 J/K/mol
[2]; 100 K
  molar heat capacity at constant pressure: 147.6 ± 0.7 J/K/mol
[2]; 102.43 K
  molar heat capacity at constant pressure: 149.8 ± 0.5 J/K/mol
[2]; 106.73 K
  molar heat capacity at constant pressure: 153.5 ± 0.6 J/K/mol
[2]; 110 K
  molar heat capacity at constant pressure: 156.4 ± 0.7 J/K/mol
[2]; 110.87 K
  molar heat capacity at constant pressure: 157.3 ± 0.6 J/K/mol
[2]; 115.52 K
  molar heat capacity at constant pressure: 160.9 ± 0.6 J/K/mol
[2]; 120 K
  molar heat capacity at constant pressure: 164.5 ± 0.7 J/K/mol
[2]; 120.66 K
  molar heat capacity at constant pressure: 165 ± 0.6 J/K/mol
[2]; 125.63 K
  molar heat capacity at constant pressure: 169 ± 0.6 J/K/mol
[2]; 130 K
  molar heat capacity at constant pressure: 172.1 ± 0.7 J/K/mol
[2]; 130.45 K
  molar heat capacity at constant pressure: 172.4 ± 0.6 J/K/mol
[2]; 135.15 K
  molar heat capacity at constant pressure: 176 ± 0.6 J/K/mol
[2]; 139.73 K
  molar heat capacity at constant pressure: 179.1 ± 0.6 J/K/mol
[2]; 140 K
  molar heat capacity at constant pressure: 179.4 ± 0.7 J/K/mol
[2]; 144.22 K
  molar heat capacity at constant pressure: 182.5 ± 0.6 J/K/mol
[2]; 148.61 K
  molar heat capacity at constant pressure: 185.6 ± 0.7 J/K/mol
[2]; 150 K
  molar heat capacity at constant pressure: 186.6 ± 0.7 J/K/mol
[2]; 152.93 K
  molar heat capacity at constant pressure: 188.8 ± 0.7 J/K/mol
[2]; 157.17 K
  molar heat capacity at constant pressure: 191.5 ± 0.7 J/K/mol
[2]; 160 K
  molar heat capacity at constant pressure: 193.5 ± 0.7 J/K/mol
[2]; 161.35 K
  molar heat capacity at constant pressure: 194.4 ± 0.7 J/K/mol
[2]; 165.97 K
  molar heat capacity at constant pressure: 197.3 ± 0.7 J/K/mol
[2]; 170 K
  molar heat capacity at constant pressure: 199.8 ± 0.7 J/K/mol
[2]; 171.03 K
  molar heat capacity at constant pressure: 200.5 ± 0.7 J/K/mol
[2]; 176 K
  molar heat capacity at constant pressure: 203.5 ± 0.7 J/K/mol
[2]; 180 K
  molar heat capacity at constant pressure: 206.2 ± 0.7 J/K/mol
[2]; 180.9 K
  molar heat capacity at constant pressure: 206.9 ± 0.7 J/K/mol
[2]; 185.74 K
  molar heat capacity at constant pressure: 210.1 ± 0.7 J/K/mol
[2]; 190 K
  molar heat capacity at constant pressure: 213 ± 0.7 J/K/mol
[2]; 190.5 K
  molar heat capacity at constant pressure: 213.3 ± 0.7 J/K/mol
[2]; 195.21 K
  molar heat capacity at constant pressure: 216.6 ± 0.8 J/K/mol
[2]; 199.87 K
  molar heat capacity at constant pressure: 219.6 ± 0.8 J/K/mol
[2]; 200 K
  molar heat capacity at constant pressure: 219.6 ± 0.9 J/K/mol
[2]; 204.46 K
  molar heat capacity at constant pressure: 222.6 ± 0.8 J/K/mol
[2]; 209.01 K
  molar heat capacity at constant pressure: 225.1 ± 0.8 J/K/mol
[2]; 210 K
  molar heat capacity at constant pressure: 225.9 ± 0.9 J/K/mol
[2]; 213.51 K
  molar heat capacity at constant pressure: 228.2 ± 0.8 J/K/mol
[2]; 217.97 K
  molar heat capacity at constant pressure: 231.3 ± 0.8 J/K/mol
[2]; 220 K
  molar heat capacity at constant pressure: 232.5 ± 0.9 J/K/mol
[2]; 222.38 K
  molar heat capacity at constant pressure: 234.3 ± 0.8 J/K/mol
[2]; 226.74 K
  molar heat capacity at constant pressure: 236.8 ± 0.8 J/K/mol
[2]; 230 K
  molar heat capacity at constant pressure: 238.9 ± 0.9 J/K/mol
[2]; 231.06 K
  molar heat capacity at constant pressure: 239.5 ± 0.8 J/K/mol
[2]; 235.35 K
  molar heat capacity at constant pressure: 242.2 ± 0.8 J/K/mol
[2]; 239.58 K
  molar heat capacity at constant pressure: 245.1 ± 0.8 J/K/mol
[2]; 240 K
  molar heat capacity at constant pressure: 245.4 ± 0.9 J/K/mol
[2]; 243.77 K
  molar heat capacity at constant pressure: 247.8 ± 0.9 J/K/mol
[2]; 248.11 K
  molar heat capacity at constant pressure: 250.8 ± 0.9 J/K/mol
[2]; 250 K
  molar heat capacity at constant pressure: 252 ± 0.9 J/K/mol
[2]; 252.68 K
  molar heat capacity at constant pressure: 253.8 ± 0.9 J/K/mol
[2]; 257.27 K
  molar heat capacity at constant pressure: 256.6 ± 0.9 J/K/mol
[2]; 260 K
  molar heat capacity at constant pressure: 258.5 ± 0.9 J/K/mol
[2]; 261.9 K
  molar heat capacity at constant pressure: 259.8 ± 0.9 J/K/mol
[2]; 266.49 K
  molar heat capacity at constant pressure: 262.7 ± 0.9 J/K/mol
[2]; 270 K
  molar heat capacity at constant pressure: 265.2 ± 0.9 J/K/mol
[2]; 271.04 K
  molar heat capacity at constant pressure: 266.1 ± 0.9 J/K/mol
[2]; 275.54 K
  molar heat capacity at constant pressure: 268.5 ± 0.9 J/K/mol
[2]; 280 K
  molar heat capacity at constant pressure: 271.7 ± 0.9 J/K/mol
[2]; 280.45 K
  molar heat capacity at constant pressure: 272.3 ± 0.9 J/K/mol
[2]; 285.75 K
  molar heat capacity at constant pressure: 275.1 ± 0.9 J/K/mol
[2]; 290 K
  molar heat capacity at constant pressure: 278.3 ± 0.9 J/K/mol
[2]; 291 K
  molar heat capacity at constant pressure: 279 ± 1 J/K/mol
[2]; 296.16 K
  molar heat capacity at constant pressure: 282.5 ± 1 J/K/mol
[2]; 298.15 K
  molar heat capacity at constant pressure: 283.9 ± 1.1 J/K/mol
[2]; 300 K
  molar heat capacity at constant pressure: 285.2 ± 1.1 J/K/mol
[2]; 300.51 K
  molar heat capacity at constant pressure: 285.7 ± 1 J/K/mol
[2]; 304.76 K
  molar heat capacity at constant pressure: 288.6 ± 1 J/K/mol
[2]; 308.97 K
  molar heat capacity at constant pressure: 291.5 ± 1 J/K/mol
[2]; 310 K
  molar heat capacity at constant pressure: 292.4 ± 1.1 J/K/mol
[2]; 313 K
  molar heat capacity at constant pressure: 294.5 ± 1.1 J/K/mol
[2]; 313.16 K
  molar heat capacity at constant pressure: 294.6 ± 1 J/K/mol
